The target in test [1] is T1, human Smo (amino acids 181-787) (Homo sapiens, UniProt Q99835).
T1 construct: expressed in transfected cells; membrane preparation
The test can be described thus: Smo radioligand competition binding assay (displacement of 3H-PF-03451358 from HEK293 membranes). The following applies: for inhibition at 0.05 µM: 0.05 μM test compound, displacement of 3H-PF-03451358, read-out: SMO % inh. @ 0.05 μM; for IC50: radioligand competition binding. As to the method:
Membranes were prepared from a stable cell line created in HEK293FlpIn-TetR cells (Invitrogen) using FIp recombinase-mediated insertion of the pSecTag-FRT/V5-His vector containing a cDNA encoding amino acids 181-787 of human Smo fused to the murine lgk leader sequence to produce a cell surface expressed Smo 181-781 protein. Hygromycin-resistant clones were obtained and stained for LacZ expression (no expression indicates a correct knock-in of my fusion cDNA). LacZ-negative cells were analyzed for binding tritiated Smo antagonist PF-03451358. For membrane preparation, the HEK293 cells expressing Smo 181-781 were grown to 90% confluence in nine to fifteen 245 mm×245 mm×22 mm dishes, washed with Dulbecco's PBS (15 ml per dish) and harvested via scraping in 10 ml of DPBS. The cells were collected and centrifuged at 1500 rpm (400×g) for 10 min at 4° C. The cell pellets were re-suspended in 40 ml of cold DPBS and washed by centrifugation at 2300 rpm (950×g max) for 10 minutes at 4° C. The supernatant was aspirated and the cell pellet was snap frozen in a methanol/dry ice bath and stored at −70° C. For membrane preparation, 15 ml of Membrane Preparation Buffer (50 mM Tris-HCl pH 7.5, 250 mM sucrose with Roche complete protease cocktail tablets) is added to the tube containing the cell pellet, then cells are rapidly thawed, and homogenized using an Ultra-Turrax T8 (IKA Labortechnik) set on “6” for 15 seconds for 5-6 times in icy water bath. This homogenate was diluted up to 50 ml using Membrane Preparation Buffer and centrifuged at 35,000 rpm in a Beckman Ti45 rotor (140,000×g) for 35 minutes at 4° C. followed by aspiration of the supernatant and re-suspension of the pellet in 5 ml of Assay Buffer (50 mM Tris-HCl pH 7.5, 100 mM NaCl, 25 mM MgCl2, 1 mM EDTA, and 0.1% protease free bovine serum albumin). The re-suspended pellet is then homogenized in a glass tissue grinder. The re-suspended membranes are aliquoted (0.5 ml aliquots), snap frozen and stored at −70° C. Total protein in the membrane preparation is determined using the Pierce BCA protein assay (Pierce Chemical).
For the binding competition assay, 100 μl of Assay Buffer is added to all the wells of a 96 well GF/B filter plate (Millipore MultiScreen-HTS-FB cat# MSFBN6B50) for 10 minutes to pre-wet the filter prior to evacuation of the buffer (8 inches Hg for 8 seconds). To the pre-wet wells is added: 20 μl of Assay Buffer, 10 μl diluted test agent, 20 μl of ^3H-PF-3451358 (15 nM stock solution), and 50 μl of membrane preparation (40 μg total protein per well). The plates are sealed and mixed at room temperature for 5 min, incubated at room temperature for 2 hours, then washed 5 times with 100 μl/each of wash buffer and vacuum dried for 8 seconds at 8 inch Hg. The plate is then dried for one hour in a 60° C. oven prior to the addition of 45 μl of Microscint 20 (Packard, #6013621) to each well and incubation at RT for 30 minutes to 1 hour. The plate is counted in a TopCount scintillation counter (Perkin Elmer).
Data analysis uses Excel for % Inhibition and Graphpad Prism for IC50 calculation. Total binding (TB, in the absence of inhibitors)=average of ^3H PF-03451358 3 nM+SMO membrane (40 μg/wells (approx 5000-7000 CPM). Non-specific binding (NSB)=average of ^3H PF-03451358 (3 nM)+cold PF-03451358 (30 μM)+SMO membrane (approx 600-1200 CPM). Specific binding (SB)=(total binding−non-specific binding). % Inhibition=[1−(compound Specific binding/control Specific binding)]×100%. IC50 is calculated by fitting the data to the four parameter sigmoidal dose-response curve (variable slope) Y=Bottom+(Top-Bottom)/(1+10̂((LogEC50−X)*HillSlope)). X is the logarithm of the inhibitor concentration. Y is the response; Y starts at Bottom and goes to Top with a sigmoid shape.
(In general: In a radioligand displacement assay an active substance lowers the binding of a labelled ligand.)

In the next test the test system is Gli-Luc/MEF cells (Smo). The test can be described thus: Gli-Luc/MEF assay (Shh-stimulated luciferase reporter under the Gli response element). The class given is cell-based, mouse. The note with it: Mus musculus, MEF, 48 h. On the procedure: The Gli-Luc/MEF cells obtained from Gli-Luc transgenic mice (Pfizer CoE, Genetically Modified Mice) contain a luciferase reporter gene under the control of the Gli response element. Luciferase activity stimulated with Sonic hedgehog ligand was inhibited by Smo inhibitors, and IC50 was subsequently calculated.
Plates were incubated at 37° C. and 5% CO2 overnight. On day two, cells were dosed with test compounds at a final concentration ranging from […] to 50 μM at a 3-time series dilution. Immediately after dosing cells with compounds, recombinant mouse sonic hedgehog (Shh, R&D Systems 464-SH) was added to a final concentration of 2 μg/mL. The cells were incubated with compounds and Shh for 48 hours at 37° C. and 5% CO2. Luciferase assays were conducted on Day 4 using the Bright-Glo Luciferase assay system (Promega E2620) according to Promega's protocol. Briefly, Bright-Glo luciferase reagent was made up and 25 uL were added to each well of the 384-well plate containing media. Plates were kept at room temperature for 5 minutes, and then read on an Envision Luminescence plate reader (Perkin-Elmer). IC50 of the inhibition was calculated by using GraphPad Prism.
(In a reporter assay the amount or activity of a reporter protein is the signal.)

The source of these data is patent US20120157471A1, “BENZIMIDAZOLE DERIVATIVES” (PFIZER INC., priority 2009, published 2012).

T1 sequence (Q99835 181-787): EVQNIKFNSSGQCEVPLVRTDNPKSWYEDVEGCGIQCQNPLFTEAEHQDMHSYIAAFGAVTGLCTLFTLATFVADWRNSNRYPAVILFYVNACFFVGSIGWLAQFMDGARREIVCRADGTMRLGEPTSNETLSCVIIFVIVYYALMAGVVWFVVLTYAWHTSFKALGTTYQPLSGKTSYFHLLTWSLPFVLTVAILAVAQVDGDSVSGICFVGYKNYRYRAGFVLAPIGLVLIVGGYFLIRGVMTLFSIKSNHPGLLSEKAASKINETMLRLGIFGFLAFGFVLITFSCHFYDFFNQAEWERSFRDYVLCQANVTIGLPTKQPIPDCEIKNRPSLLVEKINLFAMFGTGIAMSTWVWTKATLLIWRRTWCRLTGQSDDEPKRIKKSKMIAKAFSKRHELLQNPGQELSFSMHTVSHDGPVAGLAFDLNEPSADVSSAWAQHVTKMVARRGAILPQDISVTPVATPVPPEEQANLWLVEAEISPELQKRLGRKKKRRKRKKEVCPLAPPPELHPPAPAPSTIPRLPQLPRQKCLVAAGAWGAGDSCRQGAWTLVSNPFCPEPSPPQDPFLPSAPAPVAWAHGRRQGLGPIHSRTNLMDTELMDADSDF

Usually IC50 stands for the concentration that inhibits the measured activity by half. A lower IC50 goes with greater potency in that assay. For the compound `Cc1ccc(N2CCC(S(C)(=O)=O)CC2)nc1-c1nc2ccccc2n1C` [Example E-6, 1-methyl-2-{3-methyl-6-[4-(methylsulfonyl)piperidin-1-yl]pyridin-2-yl}-1H-benzimidazole], in test [1], the inhibition at 0.05 µM was 89% and the IC50 was 0.051 µM. Besides, in the test on Gli-Luc/MEF cells (Smo), the half-inhibitory concentration (IC50) turned out to be 0.0616 µM.
Regarding `Cn1c(-c2cc(N3[C@@H]4CC[C@H]3CN(C(=O)CO)C4)ncc2Cl)nc2ccccc21` [Example A-207, 2-{(1R,5S)-8-[5-chloro-4-(1-methyl-1H-benzimidazol-2-yl)pyridin-2-yl]-3,8-diazabicyclo[3.2.1]oct-3-yl}-2-oxoethanol], in test [1], the inhibition at 0.05 µM turned out to be 94% and the IC50 amounted to 0.01 µM. The compound further had an IC50 in the test with Gli-Luc/MEF cells (Smo) of 0.0173 µM.
Consider `Cn1c(-c2cc(N3CCn4c(nnc4C(F)F)C3)ncc2Cl)nc2ccccc21` [Example A-101, 7-[5-chloro-4-(1-methyl-1H-benzimidazol-2-yl)pyridin-2-yl]-3-(difluoromethyl)-5,6,7,8-tetrahydro[1,2,4]triazolo[4,3-a]pyrazine], for which, in test [1], the inhibition at 0.05 µM was determined as 81% and the half-inhibitory concentration (IC50) was 0.103 µM. In the test on Gli-Luc/MEF cells (Smo), this compound yielded an IC50 of 0.095 µM.
For `Cn1c(-c2cc(N3C[C@H]4CC[C@@H](C3)N4S(C)(=O)=O)ncc2Cl)nc2ccccc21` [Example A-175, 2-{5-chloro-2-[(1R,5S)-8-(methylsulfonyl)-3,8-diazabicyclo[3.2.1]oct-3-yl]pyridin-4-yl}-1-methyl-1H-benzimidazole], the inhibition at 0.05 µM in test [1] turned out to be 97%. In addition, the concentration for half-maximal inhibition (IC50) turned out to be 0.017 µM in test [1] and 0.009 µM in the test with Gli-Luc/MEF cells (Smo).
As to `COC(=O)N1CCN(c2cc(-c3nc4ccccc4n3C)ccn2)CC1` [Example A-141, methyl 4-[4-(1-methyl-1H-benzimidazol-2-yl)pyridin-2-yl]piperazine-1-carboxylate], in test [1], the inhibition at 0.05 µM was 96% and the IC50 came to 0.034 µM. The compound also displayed a 50% inhibitory concentration (IC50) in the test on Gli-Luc/MEF cells (Smo) of 0.027 µM.
Regarding `Cn1c(-c2cc(N3CCC(O)(CN4CCCC4=O)CC3)ncc2Cl)nc2ccccc21` [Example A-118, 1-({1-[5-chloro-4-(1-methyl-1H-benzimidazol-2-yl)pyridin-2-yl]-4-hydroxypiperidin-4-yl}methyl)pyrrolidin-2-one], in test [1], the inhibition at 0.05 µM worked out at 65%. Further, the half-inhibitory concentration (IC50) in the test with Gli-Luc/MEF cells (Smo) amounted to 0.11 µM.
Consider `Cn1c(-c2cc(N3CCOCC(N4CCC(O)CC4)C3)ncc2Cl)nc2ccccc21` (centres unmarked) [Example A-115, 1-{4-[5-chloro-4-(1-methyl-1H-benzimidazol-2-yl)pyridin-2-yl]-1,4-oxazepan-6-yl}piperidin-4-ol], for which, in test [1], the inhibition at 0.05 µM was found to be 69%. The compound also came in with a concentration for half-maximal inhibition (IC50) in the test on Gli-Luc/MEF cells (Smo) of 0.221 µM.
On to `Cn1c(-c2cc(N3CCC(S(N)(=O)=O)CC3)ncc2Cl)nc2ccccc21` [Example A-66, 1-[5-chloro-4-(1-methyl-1H-benzimidazol-2-yl)pyridin-2-yl]piperidine-4-sulfonamide], for which, in test [1], the inhibition at 0.05 µM was 94% and the IC50 came out at 0.014 µM. The concentration for half-maximal inhibition (IC50) in the test on Gli-Luc/MEF cells (Smo) stood at 0.005 µM.
Turning to `CC(=O)NCC1CCN(c2cc(-c3nc4ccccc4n3C)c(Cl)cn2)CC1` [Example A-87, N-({1-[5-chloro-4-(1-methyl-1H-benzimidazol-2-yl)pyridin-2-yl]piperidin-4-yl}methyl)acetamide], in test [1], the inhibition at 0.05 µM is 89% and the IC50 was 0.058 µM. In the test on Gli-Luc/MEF cells (Smo), this compound gave an IC50 of 0.009 µM.
Take `Cn1c(-c2cc(N3CCC(CO)C3)ncc2Cl)nc2ccccc21` (centres unmarked) [Example A-102, {1-[5-chloro-4-(1-methyl-1H-benzimidazol-2-yl)pyridin-2-yl]pyrrolidin-3-yl}methanol]: in test [1], the inhibition at 0.05 µM stood at 80% and the IC50 was 0.091 µM. For the same compound, the midpoint of inhibition in the test on Gli-Luc/MEF cells (Smo), the IC50, lay at 0.04 µM.
`Cn1c(-c2cc(N3CCC(O)(c4cncnc4)C3)ncc2Cl)nc2ccccc21` (centres unmarked) [Example A-128, 1-[5-chloro-4-(1-methyl-1H-benzimidazol-2-yl)pyridin-2-yl]-3-pyrimidin-5-ylpyrrolidin-3-ol]: the inhibition at 0.05 µM in test [1] is 54%. The compound further registered an IC50 in the test on Gli-Luc/MEF cells (Smo) of 0.08 µM.
`Cn1c(-c2cc(NCCS(N)(=O)=O)ncc2Cl)nc2ccccc21` [Example A-165, 2-{[5-chloro-4-(1-methyl-1H-benzimidazol-2-yl)pyridin-2-yl]amino}ethanesulfonamide]: in test [1], the inhibition at 0.05 µM came to 62% and the 50% inhibitory concentration (IC50) amounted to 0.374 µM. This compound displayed an IC50 in the test on Gli-Luc/MEF cells (Smo) of 0.28 µM.
The corresponding values for `Cn1c(-c2ccnc(N3CCNCC3)c2)nc2ccccc21` [Example A-31] are 54%, 0.645 µM and 0.128 µM.
For `CN(CCO)c1cc(-c2nc3ccccc3n2C)c(Cl)cn1` [Example A-164, 2-{[5-chloro-4-(1-methyl-1H-benzimidazol-2-yl)pyridin-2-yl](methyl)amino}ethanol], in test [1], the inhibition at 0.05 µM was 97%. Besides, the IC50 in test [1] was determined as 0.015 µM; in the test with Gli-Luc/MEF cells (Smo), 0.014 µM.
Turning to `Cn1c(-c2cc(N3CCN(CC(O)CO)CC3)ncc2Cl)nc2ccccc21` (centres unmarked) [Example A-103, 3-{4-[5-chloro-4-(1-methyl-1H-benzimidazol-2-yl)pyridin-2-yl]piperazin-1-yl}propane-1,2-diol], in test [1], the inhibition at 0.05 µM worked out at 80% and the 50% inhibitory concentration (IC50) is 0.153 µM. In the test with Gli-Luc/MEF cells (Smo), this compound yielded an IC50 of 0.027 µM.
With `CNC(=O)COC1CCN(c2cc(-c3nc4ccccc4n3C)c(Cl)cn2)CC1` [Example A-84, 2-({1-[5-chloro-4-(1-methyl-1H-benzimidazol-2-yl)pyridin-2-yl]piperidin-4-yl}oxy)-N-methylacetamide], the inhibition at 0.05 µM in test [1] turned out to be 91%. Moreover, the concentration for half-maximal inhibition (IC50) in test [1] was determined as 0.021 µM; in the test on Gli-Luc/MEF cells (Smo), 0.042 µM.
Take `CCNC(=O)N1CCN(c2cc(-c3nc4ccccc4n3C)c(F)cn2)CC1` [Example D-3, N-ethyl-4-[5-fluoro-4-(1-methyl-1H-benzimidazol-2-yl)pyridin-2-yl]piperazine-1-carboxamide]: in test [1], the inhibition at 0.05 µM is 98% and the concentration for half-maximal inhibition (IC50) turned out to be 0.008 µM. Moreover, the IC50 in the test on Gli-Luc/MEF cells (Smo) worked out at 0.01 µM.
For `Cc1nccc(C2(O)CCN(c3cc(-c4nc5ccccc5n4C)c(Cl)cn3)C2)n1` (centres unmarked) [Example A-123, 1-[5-chloro-4-(1-methyl-1H-benzimidazol-2-yl)pyridin-2-yl]-3-(2-methylpyrimidin-4-yl)pyrrolidin-3-ol], the inhibition at 0.05 µM in test [1] was 59%. In addition, in the test on Gli-Luc/MEF cells (Smo), the half-inhibitory concentration (IC50) was determined as 0.114 µM.
